Laboratory results taken from US20230364084A1, “METHODS FOR PREVENTING OR TREATING CONDITIONS RELATED TO PIKFYVE ACTIVITY” (The Regents of the University of Michigan, priority 2020, published 2023).
pIC50: −log10 of the molar value.

Legend:
DU145 tumors = experiment: DU145 xenograft tumor model; type: in vivo, mouse; conditions: 30 mg/kg
Protocol: Four- to six-week old male CB17 severe combined immunodeficiency (SCID) mice were procured from the University of Michigan breeding colony. Subcutaneous tumors were established at both sides of the dorsal flank of mice. Tumors were measured at least biweekly using digital calipers following the formula (π/6) (L×W2), where L=length and W=width of the tumor. At the end of the studies, mice were sacrificed and tumors extracted and weighed. The University of Michigan University Committee on the Use and Care of Animals (UCUCA) approved all in vivo studies. For the VCaP castration-resistant tumor model, 3×10^6 VCaP cells were injected subcutaneously into the dorsal flank on both sides of the mice in serum-free medium with 50% Matrigel (BD Biosciences). Once tumors reached a palpable stage (˜200 mm^3), tumor-bearing mice were castrated. Once tumors grew back to the pre-castration size, mice were randomized and treated with either 30 mg/kg, 60 mg/kg ESK981, or vehicle (ORA-PLUS) by oral gavage 5 days per week. For the DU145 xenograft tumor model, 1×10^6 DU145 cells were injected subcutaneously into the dorsal flank on both sides of the mice in serum-free medium with 50% Matrigel. When tumors reached ˜100 mm^3, tumor-bearing mice were randomized and treated with 30 mg/kg ESK981 or vehicle (ORA-PLUS) by oral gavage 5 days per week.

[1] = tested on: MDA-PCa-146-10 neuroendocrine prostate cancer PDX; experiment: MDA-PCa-146-10 patient-derived xenograft; type: in vivo, mouse; conditions: 30 mg/kg
Protocol: The University of Texas M.D. Anderson Cancer Center (MDACC) patient-derived xenografts (PDX) series has been previously described^62-64. PDXs were derived from men with CRPC undergoing palliative resections using described protocols^65,66. MDA-PCa-146-12 and 146-10 PDX were derived from a patient initially diagnosed with Gleason 3+4=7 prostate adenocarcinoma with an initial PSA of 10.7 ng/ml. […] PDXs were maintained in male SCID mice by surgically implanting 2 mm^3 tumors coated with 100% Matrigel to both flanks of mice. Once tumors reached 100-200 mm^3 in size, mice were randomized and divided into different treatment groups receiving either 30 mg/kg ESK981 or vehicle (ORA-PLUS) by oral gavage 5 days per week.

VEGFR-1 (FLT1) = VEGFR-1 (FLT1) (Homo sapiens, UniProt P17948); conditions: cited from earlier work
Myc-CaP cells = experiment: long-term survival assay in Myc-CaP cells; type: cell-based, mouse
Protocol: Single cell suspensions were seeded into 96-well plates at a density of 1,000-30,000 cells per well. Long-term survival was determined after 14 days of drug incubation. Viable cells were fixed with 4% formaldehyde and subsequently stained with 1% crystal violet. IC50 was calculated using GraphPad Prism.

[2] = tested on: enzalutamide-resistant LNCaP-AR and CWR-R1 cells; experiment: long-term survival assay in enzalutamide-resistant cell lines; type: cell-based, human; conditions: LNCaP-AR and CWR-R1, long-term survival two weeks
Protocol: FIG. 1: ESK981 inhibits the growth of diverse preclinical models of prostate cancer and is associated with a unique vacuolization morphology. • (a) The percentage viabilities of DU145 cells treated with 300 nM ESK981 or 167 other tyrosine kinase inhibitors when compared to a vehicle control. The top five most inhibitory compounds, as well as cabozantinib and crizotinib (highlighted in orange), and their respective targets are listed in the table. […] Long-term survival (two weeks) was assayed by absorbance of crystal violet at OD590. • (e) VCaP-RFP cells were cultured for three days in ultralow attachment plates to form 3D tumor spheroids prior to the indicated drug treatments. […] Fluorescence intensity of 3D spheroids was measured by IncuCyte ZOOM. • (f) Castration-resistant VCaP tumors were established subcutaneously in castrated SCID mice, and mice were randomized into three groups, which received vehicle, 30 mg/kg, or 60 mg/kg ESK981 by oral gavage once per day for the indicated dosing schedule. Tumor volumes were monitored by a digital caliper twice per week. Data were analyzed by unpaired t test and presented as mean±SEM. *p<0.05; **p<0.01. • (g) AR^+ prostate patient-derived xenograft (PDX) MDA-PCa-146-12 were implanted subcutaneously in non-castrated SCID mice, and mice were randomized into two groups receiving either once daily vehicle or 30 mg/kg ESK981 for five days each week. […]

[3] = oral gavage 5 days per week, SCID mice

Chain of VEGFR-1 (FLT1) (P17948 27-1338, species assumed): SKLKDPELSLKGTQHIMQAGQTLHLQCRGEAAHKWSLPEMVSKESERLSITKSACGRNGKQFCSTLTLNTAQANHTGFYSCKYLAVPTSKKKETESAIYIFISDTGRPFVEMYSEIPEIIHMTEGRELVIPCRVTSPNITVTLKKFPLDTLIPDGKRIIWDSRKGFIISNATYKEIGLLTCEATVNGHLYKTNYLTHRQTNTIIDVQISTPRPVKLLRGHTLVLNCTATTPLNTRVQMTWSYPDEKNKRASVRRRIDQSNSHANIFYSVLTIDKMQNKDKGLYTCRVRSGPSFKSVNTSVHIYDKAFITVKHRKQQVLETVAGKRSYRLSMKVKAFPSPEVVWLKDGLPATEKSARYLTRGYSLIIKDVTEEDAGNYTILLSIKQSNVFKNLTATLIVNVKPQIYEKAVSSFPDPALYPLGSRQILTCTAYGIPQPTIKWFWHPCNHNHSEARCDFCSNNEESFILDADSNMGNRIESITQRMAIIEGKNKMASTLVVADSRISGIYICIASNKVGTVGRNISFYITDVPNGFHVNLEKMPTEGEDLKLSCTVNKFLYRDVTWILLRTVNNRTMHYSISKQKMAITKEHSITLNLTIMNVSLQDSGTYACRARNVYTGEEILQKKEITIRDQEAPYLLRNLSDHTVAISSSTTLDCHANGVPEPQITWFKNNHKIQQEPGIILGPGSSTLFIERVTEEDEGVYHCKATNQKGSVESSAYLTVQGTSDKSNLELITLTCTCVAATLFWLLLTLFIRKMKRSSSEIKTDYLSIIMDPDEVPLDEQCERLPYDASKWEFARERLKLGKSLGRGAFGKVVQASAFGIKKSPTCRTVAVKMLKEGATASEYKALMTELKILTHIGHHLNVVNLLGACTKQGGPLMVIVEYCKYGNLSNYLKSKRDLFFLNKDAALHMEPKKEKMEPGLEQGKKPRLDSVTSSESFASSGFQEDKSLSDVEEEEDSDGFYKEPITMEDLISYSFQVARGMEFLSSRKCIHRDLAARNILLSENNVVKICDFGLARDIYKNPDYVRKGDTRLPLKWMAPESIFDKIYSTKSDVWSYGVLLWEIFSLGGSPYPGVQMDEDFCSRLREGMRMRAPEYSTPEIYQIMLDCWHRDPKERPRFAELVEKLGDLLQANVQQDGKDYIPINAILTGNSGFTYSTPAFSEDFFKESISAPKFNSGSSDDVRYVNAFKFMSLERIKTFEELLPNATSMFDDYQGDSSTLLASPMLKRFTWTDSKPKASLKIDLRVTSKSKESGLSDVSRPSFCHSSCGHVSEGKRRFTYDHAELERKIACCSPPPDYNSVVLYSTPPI

Question: Which tumor weights (DU145 tumors) does the source give for `CC(C)Cn1c2ccc(Nc3ncccn3)cc2c2c3c(c4c(c21)CCc1nn(C)cc1-4)C(=O)NC3` [ESK981, 13-isobutyl-4-methyl-10-(pyrimidin-2-ylamino)-1,2,4,7,8,13-hexahydro-6H-indazolo[5,4-a]pyrrolo[3,4-c]carbazol-6-one] here?
Answer: significant decreases in tumor weights

Question: And the tumor growth (DU145 tumors; [3])?
Answer: Significant inhibition of tumor growth

Question: And the tumor weights ([1]; day 21)?
Answer: significant decreases in tumor weights

Question: What about the tumor growth [1, 3] of the same compound?
Answer: Significant inhibition of tumor growth

Question: What about the activity against kinase (VEGFR-1 (FLT1)) of the same compound?
Answer: potent activity

Question: What about the “efficacy compared with crizotinib and cabozantinib” value (Myc-CaP cells) of the same compound?
Answer: most efficacious compound

Question: And the pIC50 (Myc-CaP cells; Mus musculus, read-out: growth inhibitory IC50)?
Answer: 7.46

Question: And the “efficacy in enzalutamide-resistant cell lines” value [2]?
Answer: remained efficacious
